In US12384753B2, “17-beta-hydroxysteroid dehydrogenase type 13 inhibitors and methods of use thereof” (Enanta Pharmaceuticals, Inc., priority 2021, dated 2025):

Target: Recombinant human HSD17B13 (Homo sapiens (Human), UniProt Q7Z5P4)
Assay: HSD17B13 rapid-fire mass spectrometry assay (RF/MS assay)
Type: biochemical
Details: inhibition of HSD17B13; LTB4 10 μM, NAD+ 0.5 mM, RT 3 h; IC50 ranges A-E
Summary of the method: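 Sf9-expressed human HSD17B13 (80 nM) with 10 μM LTB4 and 0.5 mM NAD+, incubated with compound (0–100 μM) for 3 h at RT in Tris pH 7.5/BSA/Tween-20. After formic acid quench, LTB4 conversion to 12-oxo-LTB4 measured by RapidFire MS/MS. IC50 from normalised residual activity, duplicates.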

Recombinant human HSD17B13, sequence (Q7Z5P4 20-300): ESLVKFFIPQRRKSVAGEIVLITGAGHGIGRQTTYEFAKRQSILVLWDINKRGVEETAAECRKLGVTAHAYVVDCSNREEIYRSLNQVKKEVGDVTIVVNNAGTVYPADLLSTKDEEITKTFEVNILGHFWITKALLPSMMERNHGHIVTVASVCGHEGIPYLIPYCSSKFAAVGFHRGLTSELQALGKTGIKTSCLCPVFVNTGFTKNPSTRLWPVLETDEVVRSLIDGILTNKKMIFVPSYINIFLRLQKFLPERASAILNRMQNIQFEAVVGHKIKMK

Row | IC50 [nM] | SMILES
1 | < 100 | COc1cc(C(=O)O)c(F)cc1NS(=O)(=O)c1cnc(-c2ccc(C3=CCC(C)(C)CC3)cc2)s1 [Example 728]
2 | 100 to 500 | COc1cc(C(=O)O)c(F)cc1NS(=O)(=O)c1cnn(-c2ccc([C@H]3CC[C@H](C(C)C)CC3)cc2)c1 [Example 688]
3 | 500 to 1000 | COc1cc(C(=O)O)ccc1NS(=O)(=O)c1csc(N2CCCC(C(=O)c3ccccc3)C2)n1 (centres unmarked) [Example 286]
4 | 1000 to 100000 | COc1cc(C(=O)O)ccc1NS(=O)(=O)c1csc(CCc2ccccc2)n1 [Example 181]
5 | 500 to 1000 | COc1cc(C(=O)O)ccc1NS(=O)(=O)c1csc(-c2cccc(C(F)(F)F)c2)n1 [Example 126]
6 | 100 to 500 | COc1c(NS(=O)(=O)c2cnc(-c3ccc(F)cc3)s2)ccc(C(=O)O)c1F [Example 59]
7 | 1000 to 100000 | COc1cc(C(=O)O)c(-c2ccccc2)cc1NS(=O)(=O)c1csc(-c2ccc(C3CCC(C)(C)CC3)cc2C(F)(F)F)n1 [Example 681]
8 | 100 to 500 | CCC[C@H]1CC[C@H](C2CC=C(c3nc(S(=O)(=O)Nc4cc(F)c(C(=O)O)cc4OC)cs3)CC2)CC1 (some centres unmarked) [Example 779]
9 | 500 to 1000 | COc1cc(C(=O)O)ccc1NS(=O)(=O)c1csc(C2CCC(C)(C)CC2)n1 [Example 457, 4-((2-(4,4-dimethylcyclohexyl)thiazole)-4-sulfonamido)-3-methoxybenzoic acid]
10 | 100 to 500 | COc1cc(C(=O)O)c(F)cc1NS(=O)(=O)c1csc(-c2cc(F)c(C3CCC(C)(C)CC3)cc2F)n1 [Example 519]
11 | < 100 | COc1cc(C(=O)O)c(F)cc1NS(=O)(=O)c1cnc(-c2ccc(F)cc2)s1 [Example 39]
12 | < 100 | CC[C@H]1CC[C@H](c2ccc(-c3cccc(S(=O)(=O)Nc4cc(F)c(C(=O)O)cc4OC)c3F)cc2)CC1 [Example 501]
13 | < 100 | COc1cc(C(=O)O)ccc1NS(=O)(=O)c1csc(C#Cc2ccc(C(C)C)cc2)n1 [Example 189]
14 | 1000 to 100000 | COc1cc(C(=O)O)ccc1NS(=O)(=O)N1CCC(c2nnn[nH]2)CC1 [Example 313]
15 | 1000 to 100000 | COc1cc(C(=O)O)ccc1NS(=O)(=O)c1ccc(-c2ccc(C3CCCCC3)cc2)cc1 [Example 361]
16 | 500 to 1000 | COc1cc(C(=O)O)ccc1NS(=O)(=O)c1csc(N2C[C@@H]3C[C@H]2CN3c2ccccc2)n1 [Example 289]
17 | 100 to 500 | COc1cc(C(=O)O)ccc1NS(=O)(=O)c1csc(N2CCN(C(=O)OCc3ccccc3)CC2)n1 [Example 294]
18 | 100 to 500 | COc1ccc(-c2ccc(-c3ccc(S(=O)(=O)Nc4ccc(C(=O)O)cc4OC)s3)cc2)cc1 [Example 206]
19 | 100 to 500 | COc1cc(C(=O)O)ccc1NS(=O)(=O)c1ccc(-c2ccccc2C)s1 [Example 194]
20 | 1000 to 100000 | COc1cc(C(=O)O)ccc1NS(=O)(=O)c1csc(N2CCN(S(=O)(=O)c3ccc(C)cc3)CC2)n1 [Example 290]
21 | 100 to 500 | COc1cc(C(=O)O)c(F)cc1NS(=O)(=O)c1csc(-c2ccc(C3=CCC(C)(C)CC3)c(C)c2)n1 [Example 527]
22 | < 100 | COc1cc(C(=O)O)c(F)cc1NS(=O)(=O)c1csc(-c2ccc([C@H]3CC[C@H](C(C)(C)C)CC3)c(F)c2C)n1 [Example 596]
23 | 500 to 1000 | Cc1cc(NS(=O)(=O)c2cnc(-c3ccc(F)cc3)s2)ccc1C(=O)O [Example 19]

Row | IC50 [nM] | SMILES
24 | 100 to 500 | COc1cc(C(=O)O)ccc1NS(=O)(=O)c1csc(-c2ccc(C#CC3CCCCC3)cc2)n1 [Example 485]
25 | < 100 | COc1cc(C(=O)O)c(F)cc1NS(=O)(=O)c1csc(-c2ccc(C3CCC(C)(C)CC3)c(F)c2)n1 [Example 513]
26 | 1000 to 100000 | COc1cc(C(=O)O)ccc1NS(=O)(=O)c1csc(-c2ccccn2)n1 [Example 147]
27 | 100 to 500 | COc1cc(C(=O)O)ccc1NS(=O)(=O)c1csc(-c2ccc(C3CCC(F)(F)CC3)cc2)n1 [Example 371]
28 | 1000 to 100000 | COc1cc(C(=O)O)ccc1NS(=O)(=O)N1CCN(c2ccc(OC(F)(F)F)cc2)C(=O)C1 [Example 317]
29 | < 100 | COc1cc(C(=O)O)ccc1NS(=O)(=O)c1csc(-c2ccc(C3CCC(C(C)(C)C)CC3)cc2)n1 (centres unmarked) [Example 353, 4-((2-(4-(4-(tert-butyl)cyclohexyl)phenyl)thiazole)-4-sulfonamido)-3-methoxybenzoic acid]
30 | 1000 to 100000 | COc1cc(C(=O)O)ccc1NS(=O)(=O)c1csc(-c2ccn(C)n2)n1 [Example 101]
31 | 500 to 1000 | COc1cc(C(=O)O)ccc1NS(=O)(=O)c1csc(-c2ccc(-c3ccccc3)cc2F)n1 [Example 304]
32 | < 100 | COc1cc(C(=O)O)c(F)cc1NS(=O)(=O)c1csc(-c2ccc(C3=CCC(C(C)C)CC3)c(F)c2F)n1 (centres unmarked) [Example 771]
33 | 1000 to 100000 | CONC(=O)c1ccc(NS(=O)(=O)c2cnc(-c3ccc(F)cc3)s2)c(OC)c1 [Example 70]
34 | 500 to 1000 | COc1cc(C(=O)O)ccc1NS(=O)(=O)c1ccc(-c2ccc(-c3ccccc3)cc2)s1 [Example 198]
35 | 1000 to 100000 | CCOC(=O)c1cc2c(c(OC)c1)N(S(=O)(=O)c1csc(-c3ccc(F)cc3)n1)CCC2 [Example 131]
36 | 500 to 1000 | COc1cc(C(=O)O)ccc1NS(=O)(=O)c1csc(N2CCCC(Cc3ccc(C)cc3)C2)n1 (centres unmarked) [Example 274]
37 | 1000 to 100000 | COc1cc(C(=O)O)ccc1NS(=O)(=O)N1Cc2cccc(-c3ccc(C4CCCCC4)cc3)c2C1 [Example 360]
38 | 100 to 500 | COc1cc(C(=O)O)c(F)cc1NS(=O)(=O)c1csc(C#Cc2ccccc2C)n1 [Example 237]
39 | 100 to 500 | COc1cc(C(=O)O)ccc1NS(=O)(=O)c1ccc(C#Cc2ccccc2)s1 [Example 168]
40 | < 100 | COc1cc(C(=O)O)c(F)cc1NS(=O)(=O)c1ccc(-c2ccc(F)cc2)s1 [Example 231]
41 | < 100 | COc1cccc(C#Cc2nc(S(=O)(=O)Nc3ccc(C(=O)O)cc3OC)cs2)c1 [Example 190]
42 | 500 to 1000 | COc1cc(C(=O)O)ccc1NS(=O)(=O)c1csc(-c2cccc(C)c2)n1 [Example 124]
43 | 100 to 500 | COc1cc(C(=O)O)ccc1NS(=O)(=O)c1csc(-c2cccc(O)c2)n1 [Example 146]
44 | 100 to 500 | COc1cc(C(=O)O)c(F)cc1NS(=O)(=O)c1csc(-c2ccc(C3=CCC4(CC3)CC4)cc2)n1 [Example 758]
45 | < 100 | COc1cc(C(=O)O)c(F)cc1NS(=O)(=O)c1csc(-c2ccc(C3=CCC(C)(C)CC3)cc2C)n1 [Example 556]
46 | 500 to 1000 | COc1cc(C(=O)O)ccc1NS(=O)(=O)c1csc(C#Cc2ccc(Cl)cc2)n1 [Example 185]

Row | IC50 [nM] | SMILES
47 | < 100 | CCc1cc(C2CCC(C)(C)CC2)ccc1-c1nc(S(=O)(=O)Nc2cc(F)c(C(=O)O)cc2OC)cs1 [Example 572]
48 | 100 to 500 | COc1cc(C(=O)O)ccc1NS(=O)(=O)c1cnc(-c2ccc(C3CCC4(CC3)CC4)cc2)s1 [Example 746]
49 | 100 to 500 | COc1cc(C(=O)O)c(F)cc1NS(=O)(=O)c1csc(-c2ccc(C3=CCC(C)(C)CC3)c(F)c2C)n1 [Example 562]
50 | < 100 | CCC1CC=C(c2ccc(-c3nc(S(=O)(=O)Nc4cc(F)c(C(=O)O)cc4OC)cs3)c(C(F)(F)F)c2)CC1 (centres unmarked) [Example 785]
51 | 1000 to 100000 | COc1cc(C(=O)O)ccc1NS(=O)(=O)c1csc(N2CCOCC2)n1 [Example 166]
52 | 1000 to 100000 | O=C(O)c1cc(NS(=O)(=O)c2cnc(-c3ccc(F)cc3)s2)cs1 [Example 75]
53 | 100 to 500 | COc1cc(C(=O)O)c(F)cc1NS(=O)(=O)c1cnn(-c2ccc(C3CCC(C)(C)CC3)cc2)c1 [Example 684]
54 | 100 to 500 | COc1cc(C(=O)O)c(F)cc1NS(=O)(=O)c1csc(-c2ccc(C3CCC(C)(C)CC3)c(OC(F)(F)F)c2)n1 [Example 540]
55 | < 100 | COc1cc(C(=O)O)c(F)cc1NS(=O)(=O)c1csc(-c2ccc(C3=CCC(C)(C)CC3)cc2F)n1 [Example 510]
56 | 100 to 500 | COc1cc(C(=O)O)ccc1NS(=O)(=O)c1csc(-c2cccc(C3CCCCC3)c2)n1 [Example 366]
57 | 1000 to 100000 | COc1cc(C(=O)O)ccc1NS(=O)(=O)c1csc(N2CCC(c3nnn[nH]3)CC2)n1 [Example 263]
58 | 100 to 500 | COc1cc(C(=O)O)c(F)cc1NS(=O)(=O)c1csc(-c2ccc(C3=CCC(C)(C)CC3)nc2)n1 [Example 551]
59 | < 100 | C=C(c1ccc(-c2ncc(S(=O)(=O)Nc3ccc(C(=O)O)cc3OC)s2)cc1)C1CC1 [Example 450]
60 | 100 to 500 | COc1cc(C(=O)O)c(F)cc1NS(=O)(=O)c1csc(-c2ccc(C3=CCC(C)(C)CC3)c3[nH]ncc23)n1 [Example 538]
61 | 100 to 500 | COc1cc(C(=O)O)ccc1NS(=O)(=O)c1csc(C2=CCC(C)(C)CC2)n1 [Example 454, 4-((2-(4,4-dimethylcyclohex-1-en-1-yl)thiazole)-4-sulfonamido)-3-methoxybenzoic acid]
62 | 100 to 500 | CCCCC[C@H]1CC[C@H](c2ccc(-c3nc(S(=O)(=O)Nc4cc(F)c(C(=O)O)cc4OC)cs3)c(F)c2)CC1 [Example 759]
63 | < 100 | COc1cc(C(=O)O)ccc1NS(=O)(=O)c1cnc(-c2ccc(F)cc2)s1 [Example 23]
64 | < 100 | COc1cc(C(=O)O)c(F)cc1NS(=O)(=O)c1csc(-c2ccc(C3=CCC(C(F)(F)F)CC3)c(OC(C)C)c2F)n1 (centres unmarked) [Example 810]
65 | 100 to 500 | COc1cc(C(=O)O)ccc1NS(=O)(=O)c1csc(C#Cc2cc(C(F)(F)F)[nH]c(=O)c2)n1 [Example 247, 3-methoxy-4-((2-((2-oxo-6-(trifluoromethyl)-1,2-dihydropyridin-4-yl)ethynyl)thiazole)-4-sulfonamido)benzoic acid]
66 | 1000 to 100000 | COc1cc(C(=O)O)ccc1NS(=O)(=O)N1Cc2nc(-c3ccc([C@H]4CC[C@H](C(F)(F)F)CC4)cc3)sc2C1 [Example 460]
67 | 100 to 500 | COc1cc(C(=O)O)ccc1NS(=O)(=O)c1csc(-c2ccc(-c3ccc(OC(F)(F)F)cc3)cc2)n1 [Example 280]

Row | SMILES | IC50 [nM]
68 | COc1cc(C(=O)O)c(F)cc1NS(=O)(=O)c1csc(-c2ccc(-c3ccc(C45CC6C[C@H](C4)C[C@H](C6)C5)cc3)cc2C(F)(F)F)n1 [Example 775] | < 100
